One series concerns AMPA receptors. In words: field EPSP amplitude in field CA1 of rat hippocampal slice. Format: cell-based. The note with it: for AMP: concentration of modulator that increases the amplitude of the fEPSP by 10%: rat hippocampal slice. An excerpt:
The field EPSP, (excitatory post-synaptic potential) recorded in field CA1 after stimulation of CA3 axons is known to be mediated by AMPA receptors, which are present in the synapses (Kessler et al., Brain Res. 560: 337-341 (1991)). Drugs that selectively block the receptor selectively block the field EPSP (Muller et al., Science, supra). […] These effects are mirrored in the field EPSP (see, for example, Staubli et al., Psychobiology, supra; Xiao et al., Hippocampus, supra; Staubli et al., Hippocampus 2: 4958 (1992)).
To obtain the data shown in Table I, a bipolar nichrome stimulating electrode was positioned in the dendritic layer (stratum radiatum) of the hippocampal subfield CA1 close to the border of subfield CA3, as described in Example 64. Current pulses (0.1 msec) through the stimulating electrode activate a population of the Schaffer-commissural (SC) fibers, which arise from neurons in the subdivision CA3 and terminate in synapses on the dendrites of CA1 neurons. Activation of these synapses causes them to release the transmitter glutamate. Glutamate binds to post-synaptic AMPA receptors, which then transiently open an associated ion channel and permit a sodium current to enter the postsynaptic cell. This current results in a voltage in the extracellular space (the field EPSP), which is recorded by a high impedance recording electrode positioned in the middle of the stratum radiatum of CA1.
The intensity of the stimulation current was adjusted to produce half-maximal EPSPs (typically about 1.5-2.0 mV). Paired stimulation pulses were given every 40 sec with an interpulse interval of 200 msec, as described further in Example 64.
Hippocampal slices were maintained in a recording chamber continuously perfused with artificial cerebrospinal fluid (ACSF). During 15-30 minute intervals, the perfusion medium was switched to one containing various concentrations of the test compounds. Responses collected immediately before and at the end of drug perfusion were superimposed in order to calculate the percent increase in EPSP amplitude.
(§1) The physiological effects of invention compounds were tested in vitro on primary cultures of rat cortical neurons as described by Hamill, O P, et al. in Pflügers Arch 391: 85-100 (1981) or on slices of rat hippocampus according to the following procedure. Excitatory responses (field EPSPs) were measured in hippocampal slices, which were maintained in a recording chamber continuously perfused with artificial cerebrospinal fluid (ACSF). During a 15-30 minute interval, the perfusion medium was switched to one containing various concentrations of the test compounds. Responses collected immediately before and at the end of drug perfusion were superimposed in order to calculate the percent increase in EPSP amplitude.
To conduct these tests, the hippocampus was removed from anesthetized, 2 month old Sprague-Dawley rats and in vitro slices (400 μm thick) were prepared and maintained in an interface chamber at 35° C. using conventional techniques [see, for example, Dunwiddie and Lynch, J. Physiol. 276: 353-367 (1978)]. The chamber was constantly perfused at 0.5 mL/min with ACSF containing (in mM): NaCl 124, KCl 3, KH2PO4 1.25, MgSO4 2.5, CaCl2 3.4, NaHCO3 26, glucose 10 and L-ascorbate 2. A bipolar nichrome stimulating electrode was positioned in the dendritic layer (stratum radiatum) of the hippocampal subfield CA1 close to the border of subfield CA3.
Current pulses (0.1 msec) through the stimulating electrode activate a population of the Schaffer-commissural (SC) fibers, which arise from neurons in the subdivision CA3 and terminate in synapses on the dendrites of CA1 neurons. Activation of these synapses causes them to release the transmitter glutamate. Glutamate binds to the post-synaptic AMPA receptors, which then transiently open an associated ion channel and permit a sodium current to enter the postsynaptic cell. […]

The subject of another series is AMPA receptor. In words: steady-state current induced by glutamate in cortical neurons in primary culture. It counts as cell-based, rat. Particulars: for EC2X: concentration of modulator required to double the steady state current: 300 μM glutamate on cultured neurons. As for the experimental part: as §1
Series [1] can be described thus: eight-arm radial maze task for cognition/memory enhancement. It counts as in vivo. An excerpt: This task has been described previously (Staubli et al., PNAS 91:777-781 (1994)) and Lynch and Rogers, PCT Pubn. No. WO 94/02475).
This test has been described previously by Staubli et al., PNAS 91:777-781 (1994) and Lynch and Rogers, U.S. Pat. No. 5,747,492.

Usually melting point stands for the temperature of the solid-liquid transition. In turn, `CCN1COc2cc3c(cc2C1=O)OCN(CC)C3=O` [Example 21, 3,8-diethyl-2H,7H-1,3-oxazaperhydroino[5′,6′-4,5]benzo[e]1,3-oxazine-4,9-dione] had a melting point of 236 to 237 °C. Besides, in the series on AMPA receptors, the “AMP: concentration of modulator that increases the amplitude of the fEPSP by 10%” value came to 10 µM. The “EC2X: concentration of modulator required to double the steady state current” value (“EC2X … to double the steady state current” below) with AMPA receptor is 1.8 µM.

Regarding `O=C1c2cc3c(cc2OC2CCCN12)C(=O)N1CCCC1O3` [Example 1, (R,S), (R,S)-3aH,9aH-pyrrolidino[2,1-b]pyrrolidino[2″,1″-2′,3′](1,3-oxazino)[5′,6′-2,1]benzo[4,5-e]1,3-oxazaperhydroine-6,12-dione], the “potency relative to CX516 (times more potent)” value in series [1] (eight-arm radial maze MEDC) is on record as 250.

As to `CN1COc2cc3c(cc2C1=O)OC1CCCN1C3=O` (racemic) [Example 22, (R,S)-3-methyl-2H,6aH-pyrrolidino[2″,1″-3′,2′]1,3-oxazino[5′,6′-4,5]benzo[e]1,3-oxazaperhydroine-4,10-dione], the melting point was 195 to 196 °C. Also, the “AMP: concentration of modulator that increases the amplitude of the fEPSP by 10%” value in the series with AMPA receptors turned out to be 10 µM. For the same molecule, the “EC2X … to double the steady state current” value with AMPA receptor was found to be 0.2 µM.

For the molecule `O=C(c1ccc2nccnc2c1)N1CCCCC1` [CX516, 1-(quinoxaline-6-ylcarbonyl)piperidine, reference compound], the “Amp: concentration of compound that causes a 10% increase in the amplitude of the field EPSP” value in the series on AMPA receptors (field CA1 of rat hippocampal slice, estimated by interpolation or extrapolation) is 80 µM. Besides, the “AMP: concentration of modulator that increases the amplitude of the fEPSP by 10%” value in the series on AMPA receptors is 80 µM. Besides, in the series on AMPA receptor, the “EC2X … to double the steady state current” value stood at 830 µM. For the same molecule, the “EC2x: concentration of compound that causes at least a doubling of the steady-state current” value with AMPA receptor (cortical neurons in primary culture, 300 μM glutamate) was 830 µM. Moreover, the “MEDC: Minimum Effective Dose that produces a statistically significant improvement in behavior” value in series [1] (eight-arm radial maze task) stood at 12.5 mg/kg.

(Values after patent US7799913B2, “Carbonylbenzoxazine compounds for enhancing glutamatergic synaptic responses” (Cortex Pharmaceuticals, Inc., priority 2001, dated 2010).)
